In patent US20040132643A1 (priority 2004, published 2004):

Tests used:
Na+/I- symporter [1] = experiment: 125I iodine accumulation study in thyroid carcinoma cells; assay type: cell-based, human
Protocol: To evaluate the function of the Na^+/I^− symporter, iodine accumulation studies were performed. FTC 133, FTC 236 SW-1736 and KAT-4 cells were treated with 1 ng/ml FR901228 for two or three days, or left untreated. Cells were then incubated in 0.5 ml of Hanks' Balanced Salt Solution (HBSS; Life Technologies, Inc., Eggenstein, Germany) containing approximately 2 μCi carrier-free Na^125I (DuPont NEN, Boston, Mass.) and 30 μM NaI] ^125I for 10 minutes. For perchlorate studies NaCIO4 was added as a 100X solution in HBSS, to a final concentration of 30 and 100 μM, immediately after the addition of radiolabeled iodine. Excess radiolabeled iodine was then removed, and the amount of ^125I accumulated in the cells was determined by gamma counting.

[2] = tested on: TG promoter-enhancer element; experiment: TG-luciferase reporter assay in transfected thyroid carcinoma cells; assay type: cell-based, human; conditions: 1 ng/ml FR901228; for enhancement in luciferase activity over that observed in untreated cells / enhancement over RLU observed in untreated cells: TG-luc
FTC 133 cells = conditions: 1 ng/ml FR901228 for 72 hours
Protocol: (§1) FTC 133 and FTC 236 cells were derived from cultures obtained from the primary tumor (FTC 133) and a nodal metastasis (FTC 236) of a human follicular thyroid carcinoma. […] Anaplastic thyroid carcinoma lines SW-1736 and KAT-4 were derived from primary cultures of human anaplastic thyroid carcinoma tumors.
(§2) Each of these four cell lines was exposed to varying concentrations of FR901228 (0.01 ng/ml, 0.1 ng/ml, 1 ng/ml, 10 ng/ml) for 72 hours, following which cell viability was determined using the 3-[4,5-dimethylthiazol-2-yl]-2,5-diphenyl tetrazoliumbromide (MTT) assay, as described in Mosmann, J Immunol Methods 65:55-63, 1983, and Den Boer et al., Br. J. Haem. 105: 876-882, 2000. The MTT assay is a colorimetric assay of the loss of mitochondrial metabolic activity associated with cell death.

KAT-4 cells = conditions: 1 ng/ml FR901228 for 72 hours
Protocol: as §1, §2

FTC 236 cells = conditions: 1 ng/ml FR901228 for 72 hours
Protocol: as §1, §2

SW-1736 cells = conditions: 1 ng/ml FR901228 for 72 hours
Protocol: as §1, §2

thyroglobulin = experiment: RT PCR and northern blot analysis of thyroglobulin expression in thyroid carcinoma cells; assay type: cell-based, human
Protocol: (§3) RT PCR and Northern blot analysis are described in detail in a number of standard molecular biology reference works, for example Ausubel et al., Short Protocols in Molecular Biology, John Wiley & Sons, 1998.
(§4) Total RNA was extracted from FR901228-treated and untreated thyroid carcinoma cells using RNA STAT-60 (Tel-Test, Inc.), at 24 hours, 48 hours, and 72 hours following addition of FR901228-containing or control solution to the cell cultures. RNA was also extracted from normal thyroid cells for purposes of comparison. The extracted RNA was used without further modification for northern blots. For RT PCR, the extracted RNA was reverse transcribed into cDNA using standard techniques.
Oligonucleotide primers used for PCR analysis of human thyroglobulin expression were: […]
Using these primers, the presence of human thyroglobulin cDNA template is reflected by a 219 bp PCR product.

Na+/I- symporter [3] = experiment: RT PCR and northern blot analysis of Na+/I- symporter expression in thyroid carcinoma cells; assay type: cell-based, human
Protocol: as §3, §4
Oligonucleotide primers used for PCR analysis of human Na^+/I^− symporter expression were:
Using these primers, the presence of human Na^+/I^− symporter cDNA template is reflected by a 303 bp PCR product.

histone deacetylase = experiment: Histone acetylation by immunofluorescence microscopy (anti-acetylated histone H3) in thyroid carcinoma cells; assay type: cell-based, human; conditions: 1 ng/ml FR901228 for 72 hours
Protocol: Histone acetylation was detected by immunofluorescence microscopy. In this experimental approach, fixed cells are exposed to a primary antibody that specifically binds to acetylated histones, and then exposed to an FITC-labeled secondary antibody that binds to the primary antibody.
FTC 236 and SW-1736 cells were cultured as described in Example 1, and treated for 72 hours with 1 ng/ml FR901228. Control FTC 236 and SW-1736 received no FR901228, but were otherwise treated identically to the FR901228-exposed cells. After 72 hours, each culture was treated with trypsin, harvested, and subjected to low speed centrifugation to form a cell pellet. Cells from each pellet were placed on microscope slides and fixed with 95% ethanol/5% acetic acid for one minute at room temperature. After fixation, slides were washed twice with phosphate buffered saline (PBS) for 15 minutes, treated with 8% bovine serum albumin in PBS for one hour at room temperature, and washed 15 minutes in PBS.
The fixed cells were then incubated overnight at 4° C. with 5 ug/ml anti-alpha acetylated histone H3 in 2% bovine serum albumin in PBS (antibody obtained from Upstate Biotechnology, Lake Placid N.Y.). Subsequently, cells were washed twice with PBS for five minutes at room temperature and then incubated with horse anti-rabbit FITC-conjugated secondary antibody (from Vector Labs, Burlingame Calif.). […]

[4] = tested on: thymidine kinase (TK) promoter enhancer; experiment: TK-luciferase reporter assay (positive control) in transfected thyroid carcinoma cells; assay type: cell-based, human; conditions: 1 ng/ml FR901228
From the text: As a positive control, FTC 236 and SW-1736 cells were transfected with a reporter plasmid encoding luciferase operably linked to the thymidine kinase (TK) promoter enhancer. The TK promoter enhancer is a constitutively active promoter element, meaning that it is not thyroid-specific and is fully active in all cell types.
For transfection, FTC 236 and SW-1736 cells were exposed to a transfection mixture of 0.5 micrograms of plasmid DNA, 4.5 microliters TransFast transfection reagent (Promega, Madison Wis.) and 200 microliters of RPMI medium. Plasmid DNA was either a TG-luciferase (TG-luc) construct or a TK-luciferase (TK-luc) construct. All transfections were performed in triplicate.
After incubating cells for one hour with the transfection mixture, cells were cultured in the presence or absence of 1 ng/ml FR901228 for two days. Cells were then harvested and lysed, and an extract of cellular protein was obtained. Total protein concentration in the extract was determined using the Bio-Rad protein assay system (Bio-Rad, Richmond Calif.). Luciferase activity was determined using the Luciferase Assay System (Promega, Madison Wis.), and was normalized to total protein concentration. […]

[5] = ATC cells, 72 hours of FR901228 exposure
[6] = FTC cells, 72 hours of FR901228
[7] = FTC cells, RT PCR and northern blot

[O-][Cl+3]([O-])([O-])O [sodium perchlorate] was tested. Which “inhibition of iodine (125I) accumulation” value (Na+/I- symporter [1]; FR901228-treated thyroid carcinoma cells, perchlorate 30 and 100 μM) did it give?
The value was “inhibited in a dose-dependent manner”.

C/C=C1\NC(=O)[C@H]2CSSCC/C=C/[C@H](CC(=O)N[C@H](C(C)C)C(=O)N2)OC(=O)[C@H](C(C)C)NC1=O [FR901228] was tested. Which “iodine (125I) accumulation” value (Na+/I- symporter [1]; four cell lines (FTC 133, FTC 236, SW-1736, KAT-4), 1 ng/ml FR901228, two and three days) did it give?
The value was “Marked increases”.

And the “relative luciferase units (RLU) in TG-luc transfected cells, TK luc = 100%” value (“relative luciferase units (RLU) … TK luc = 100%” for short) ([2]; FTC 133 cells)?
The value was “about 1000%”.

What about the “enhancement in luciferase activity over that observed in untreated cells” value ([2]; FTC 133 cells) of the same compound?
The value was “greater than tenfold”.

And the “relative luciferase units (RLU) … TK luc = 100%” value ([2]; FTC 236 cells)?
Its value is “about 1000%”.

And the “enhancement in luciferase activity over that observed in untreated cells” value ([2]; FTC 236 cells)?
The value was “greater than tenfold”.

What about the “relative luciferase units (RLU) … TK luc = 100%” value ([2]; KAT-4 cells) of the same compound?
Its value is 400-500%.

What about the “enhancement over RLU observed in untreated cells” value ([2]; KAT-4 cells) of the same compound?
The value was “greater than ten-fold”.

And the “relative luciferase units (RLU) … TK luc = 100%” value ([2]; SW-1736 cells)?
The value was 400-500%.

What about the “enhancement over RLU observed in untreated cells” value ([2]; SW-1736 cells) of the same compound?
Its value is “greater than ten-fold”.

And the “cytotoxicity (cell viability, MTT assay)” value (FTC 133 cells)?
Its value is “not significantly cytotoxic”.

And the “cytotoxicity (cell viability, MTT assay)” value (KAT-4 cells)?
Its value is “not significantly cytotoxic”.

And the “cytotoxicity (cell viability, MTT assay)” value (FTC 236 cells)?
Its value is “not significantly cytotoxic”.

And the “cytotoxicity (cell viability, MTT assay)” value (SW-1736 cells)?
Its value is “not significantly cytotoxic”.

And the “time after FR901228 at which increased TG expression was first observed” value (thyroglobulin; ATC cells)?
The value was 48 h.

And the “TG expression after 72 hours” value (thyroglobulin; [5])?
The value was “further increases”.

What about the “TG expression after 72 hours” value (thyroglobulin; [6]) of the same compound?
The value was “further increases”.

What about the “time following addition of FR901228 at which increased TG expression was detected” value (thyroglobulin; [7]) of the same compound?
Its value is at most 24 h.

And the “time after FR901228 at which increased Na+/I- symporter expression was first observed” value (Na+/I- symporter [3]; ATC cells)?
Its value is 48 h.

And the “Na+/I- symporter expression after 72 hours” value (Na+/I- symporter [3]; [5])?
Its value is “further increases”.

And the “Na+/I- symporter expression after 72 hours” value (Na+/I- symporter [3]; [6])?
The value was “further increases”.

What about the “time following addition of FR901228 at which increased Na+/I- symporter expression was detected” value (Na+/I- symporter [3]; [7]) of the same compound?
Its value is at most 24 h.

And the “histone acetylation (nuclear fluorescence) relative to the control cells” value (histone deacetylase; FTC 236 cells)?
Its value is “marked increase”.

And the “histone acetylation (nuclear fluorescence) relative to the control cells” value (histone deacetylase; SW-1736 cells)?
Its value is “marked increase”.

And the “effect on luciferase activity in TK luc-transfected cells” value [4]?
Its value is “no effect”.
